One assay concerns the target T1, human mPGES-1 (Homo sapiens, UniProt O14684).
T1 construct: made in house; host or cells: CHO-K1 cells, transient transfection; microsomal fraction
T1 sequence (O14684 1-152): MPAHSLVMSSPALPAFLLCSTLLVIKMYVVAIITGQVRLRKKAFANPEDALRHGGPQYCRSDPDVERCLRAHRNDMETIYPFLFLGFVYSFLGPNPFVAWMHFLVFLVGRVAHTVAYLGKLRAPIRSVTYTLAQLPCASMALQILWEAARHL
As to the kind of experiment: Microsomal prostaglandin E synthase assay. Conditions: microsomes of CHO-K1 cells transfected with human mPGES-1; PGE2 by EIA; average of at least n=3; read-out: h-CHO (nM); potency expressed as IC50. Type of assay: biochemical. The protocol:
Compounds are tested as inhibitors of prostaglandin E synthase activity in microsomal prostaglandin E synthases, whole cell and in vivo assays. These assays measure prostaglandin E2 (PGE2) synthesis using either Enzymatic Immunoassay (EIA) or mass spectrometry. Cells used for microsomal preparation are CHO-K1 cells transiently transfected with plasmids encoding the human mPGES-1 cDNA. Cells used for cell-based experiments are human A549 (which express human mPGES-1). Guinea pigs are used to test the activity of selected compounds in vivo. In all these assays, 100% activity is defined as the PGE2 production in vehicle-treated samples.
Prostaglandin E synthase microsomal fractions are prepared from CHO-K1 cells transiently transfected with plasmid encoding the human mPGES-1 cDNA. […] The enzyme reactions are performed in 200 mM KPi pH 7.0, 2 mM EDTA and 2.5 mM GSH-reduced form. […] The reaction is terminated by the addition of SnCl2 in 1N HCl (1 mg/ml final).

Assay [1] deals with human colon tumor cell line. Conditions: cited from earlier work.

Structures are written as SMILES.

On to `N#Cc1cccc(C#N)c1-c1nc2c3ccc(Br)cc3c3cc(Cl)ccc3c2[nH]1` [Example 36, 2-(6-bromo-9-chloro-1H-phenanthro[9,10-d]imidazol-2-yl)isophthalonitrile], for which, on human mPGES-1, the IC50 turned out to be 1.2 nM.
As to `CC(C)c1ccc2c(c1)c(SC(C)(C)C)c(CC(C)(C)C(=O)O)n2Cc1ccc(Cl)cc1` [MK-886], in assay [1], the PGE2 formation entry is given as “inhibits” and the cell proliferation entry is recorded as “inhibits”.
Turning to `CC(C)(O)c1ccc2c(c1)c1cc(Br)ccc1c1nc(-c3c(C#N)cccc3C#N)[nH]c21` [Example 87, 2-[6-bromo-9-(1-hydroxy-1-methylethyl)-1H-phenanthro[9,10-d]imidazol-2-yl]isophthalonitrile], the IC50 at human mPGES-1 was 1.9 nM.
As to `CC(C)(O)C#Cc1ccc2c(c1)c1cc(Cl)ccc1c1[nH]c(-c3c(F)cccc3C#N)nc21` [Example 14, 2-[9-chloro-6-(3-hydroxy-3-methylbutyl-1-yn-1-yl)-1H-phenanthro[9,10-d]imidazol-2-yl]-3-fluorobenzonitrile], the IC50 at human mPGES-1 was found to be 1.8 nM.
As to `CC(C)(O)c1ccc2c(c1)c1cc(C#CC3CC3)ccc1c1nc(-c3c(C#N)cccc3C#N)[nH]c21` [Example 88, 2-[6-(cyclopropylethynyl)-9-(1-hydroxy-1-methylethyl)-1H-phenanthro[9,10-d]imidazol-2-yl]isophthalonitrile], at human mPGES-1, the IC50 came out at 1.3 nM.

The record behind these values is patent US20090192158A1, “Methods for Treating or Preventing Neoplasias” (priority 2006, published 2009).
